This is an account of results in ChEMBL document CHEMBL3046680, “Evidence of stereoselective and segmental-dependant transport of chiral antidiabetic drug nateglinide along the rat small intestine: possible role of efflux transporters” (Med Chem Res, 2013).

A short description of series [1]: (§1) Apparent permeability across basal to apical side of Sprague-Dawley Rattus norvegicus (rat) everted ileum sac at 1 mg/ml by HPLC method. The conditions noted are these: Sprague-Dawley. In kind it is ADME, tissue-based.
Series [2] can be described thus: (§2) Apparent permeability across basal to apical side of Sprague-Dawley Rattus norvegicus (rat) everted jejunum sac at 1 mg/ml by HPLC method. The settings on record: Sprague-Dawley. The format is ADME, tissue-based.
The nature of series [3]: (§3) Apparent permeability across basal to apical side of Sprague-Dawley Rattus norvegicus (rat) everted duodenum sac at 1 mg/ml by HPLC method. In kind it is ADME. The conditions noted are these: Sprague-Dawley.
A short description of series [4]: (§4) Apparent permeability across apical to basal side of Sprague-Dawley Rattus norvegicus (rat) normal ileum sac at 1 mg/ml by HPLC method. In kind it is ADME, tissue-based. The conditions noted are these: Sprague-Dawley.
A short description of series [5]: (§5) Apparent permeability across apical to basal side of Sprague-Dawley Rattus norvegicus (rat) normal jejunum sac at 1 mg/ml by HPLC method. In kind it is ADME, tissue-based. The conditions noted are these: Sprague-Dawley.
Series [6] in a line: (§6) Apparent permeability across apical to basal side of Sprague-Dawley Rattus norvegicus (rat) normal duodenum sac at 1 mg/ml by HPLC method. In kind it is ADME. The conditions noted are these: Sprague-Dawley.
Series [7] is described as follows: (§7) Efflux Rattus norvegicus (rat)io of apparent permeability from basal to apical side over apical to basal side of Sprague-Dawley Rattus norvegicus (rat) ileum sac at 1 mg/ml by HPLC method. In kind it is ADME, tissue-based. The conditions noted are these: Sprague-Dawley.
Series [8] in a line: (§8) Efflux Rattus norvegicus (rat)io of apparent permeability from basal to apical side over apical to basal side of Sprague-Dawley Rattus norvegicus (rat) jejunum sac at 1 mg/ml by HPLC method. The format is ADME, tissue-based. The conditions noted are these: Sprague-Dawley.
A short description of series [9]: (§9) Efflux Rattus norvegicus (rat)io of apparent permeability from basal to apical side over apical to basal side of Sprague-Dawley Rattus norvegicus (rat) duodenum sac at 1 mg/ml by HPLC method. The format is ADME. The settings on record: Sprague-Dawley.
Series [10] deals with Ileum. Described as §1. The format is ADME, tissue-based.
Series [11] concerns Jejunum. Described as §2. In kind it is ADME, tissue-based.
Series [12] concerns Duodenum. The series is described as §3. The format is ADME.
The subject of series [13] is Ileum. Described as §4. In kind it is ADME, tissue-based.
Series [14] has as its system Jejunum. Described as §5. In kind it is ADME, tissue-based.
In series [15] the test system is Duodenum. Described as §6. The format is ADME.
In series [16] the test system is Ileum. Described as §7. In kind it is ADME, tissue-based.
The test system of series [17] is Jejunum. The series is described as §8. The format is ADME, tissue-based.
For series [18], the system named is Duodenum. The description is as §9. The format is ADME.
A short description of series [19]: Efflux Rattus norvegicus (rat)io of apparent permeability from basal to apical side over apical to basal side of Sprague-Dawley Rattus norvegicus (rat) duodenum sac at 500 ug/ml by HPLC method. In kind it is ADME.
Series [20] can be described thus: Apparent permeability across basal to apical side of Sprague-Dawley Rattus norvegicus (rat) everted ileum sac at 500 ug/ml by HPLC method. In kind it is ADME, tissue-based.
A short description of series [21]: Apparent permeability across basal to apical side of Sprague-Dawley Rattus norvegicus (rat) everted jejunum sac at 500 ug/ml by HPLC method. The format is ADME, tissue-based.
The nature of series [22]: Apparent permeability across basal to apical side of Sprague-Dawley Rattus norvegicus (rat) everted duodenum sac at 500 ug/ml by HPLC method. In kind it is ADME.
Series [23] can be described thus: Apparent permeability across apical to basal side of Sprague-Dawley Rattus norvegicus (rat) normal ileum sac at 500 ug/ml by HPLC method. The format is ADME, tissue-based.
The nature of series [24]: Apparent permeability across apical to basal side of Sprague-Dawley Rattus norvegicus (rat) normal jejunum sac at 500 ug/ml by HPLC method. The format is ADME, tissue-based.
Series [25] is described as follows: Apparent permeability across apical to basal side of Sprague-Dawley Rattus norvegicus (rat) normal duodenum sac at 500 ug/ml by HPLC method. In kind it is ADME.
The nature of series [26]: Efflux Rattus norvegicus (rat)io of apparent permeability from basal to apical side over apical to basal side of Sprague-Dawley Rattus norvegicus (rat) […] sac at 500 ug/ml by HPLC method. In kind it is ADME, tissue-based, Ileum.
Series [27] in a line: Efflux Rattus norvegicus (rat)io of apparent permeability from basal to apical side over apical to basal side of Sprague-Dawley Rattus norvegicus (rat) jejunum sac at 500 ug/ml by HPLC method. In kind it is ADME, tissue-based.
Series [28] can be described thus: Oral bioavailability in Homo sapiens (human). The settings on record: in vivo. The format is ADME, organism-based.
A short description of series [29]: Elimination half life in Homo sapiens (human). In kind it is ADME, organism-based. The settings on record: in vivo, read-out: beta t1/2 (converted).
The nature of series [30]: Dissociation constant, pKa of the compound. In kind it is physicochemical.
The nature of series [31]: Tmax in Homo sapiens (human). The conditions noted are these: in vivo. The format is ADME, organism-based.

`CC(C)[C@H]1CC[C@H](C(=O)N[C@H](Cc2ccccc2)C(=O)O)CC1` (racemic; form 1) [NATEGLINIDE]: the Papp B→A at 1 mg/ml in [1] was 590 ×10⁻⁶ cm/s; in [2] it was 340 ×10⁻⁶ cm/s; in [3], 350 ×10⁻⁶ cm/s. Moreover, the Papp A→B at 1 mg/ml in series [4] worked out at 190 ×10⁻⁶ cm/s; in series [5], 230 ×10⁻⁶ cm/s; in series [6], 260 ×10⁻⁶ cm/s. Also, the efflux ratio at 1 mg/ml in series [7] is 3.1; in [8] it was 1.4; in [9], 1.3.
`CC(C)[C@H]1CC[C@H](C(=O)N[C@H](Cc2ccccc2)C(=O)O)CC1` (racemic; form 2) [NATEGLINIDE]: the Papp in the series with Ileum [10] was determined as 3.6 ×10⁻⁴ cm/s; with Jejunum [11], 3.6 ×10⁻⁴ cm/s; with Duodenum [12], 3.4 ×10⁻⁴ cm/s; in the series on Ileum [13] it was 1.3 ×10⁻⁴ cm/s; with Jejunum [14], 2.2 ×10⁻⁴ cm/s; in the series with Duodenum [15], 2.4 ×10⁻⁴ cm/s. For the same compound, the Ratio in the series on Ileum [16] came to 3.5; in the series on Jejunum [17], 1.5; in the series on Duodenum [18], 1.4.
For `CC(C)[C@H]1CC[C@H](C(=O)N[C@@H](Cc2ccccc2)C(=O)O)CC1` [(S)-NATEGLINIDE], the efflux ratio at 500 ug/ml in series [19] is 1.4; in series [26] it was 3.8; in series [27], 1.7. For the same compound, the basolateral-to-apical permeability (Papp B→A) at 500 ug/ml in series [20] was 380 ×10⁻⁶ cm/s; in series [21] it was 220 ×10⁻⁶ cm/s; in series [22] it was 210 ×10⁻⁶ cm/s. Besides, the apical-to-basolateral permeability (Papp A→B) at 500 ug/ml turned out to be 100 ×10⁻⁶ cm/s in series [23], 130 ×10⁻⁶ cm/s in series [24] and 140 ×10⁻⁶ cm/s in [25].
Consider `CC(C)[C@H]1CC[C@H](C(=O)N[C@H](Cc2ccccc2)C(=O)O)CC1` [NATEGLINIDE], for which the bioavailability in [28] was 70%. Besides, the figures for the efflux ratio at 500 ug/ml in [19], in series [26] and in series [27] were 1.6, 4.8 and 2, respectively. The Papp B→A at 500 ug/ml was 440 ×10⁻⁶ cm/s in series [20], 240 ×10⁻⁶ cm/s in series [21] and 250 ×10⁻⁶ cm/s in [22]. Moreover, the apparent permeability from apical to basolateral (Papp A→B) at 500 ug/ml came to 90 ×10⁻⁶ cm/s in series [23], 120 ×10⁻⁶ cm/s in series [24] and 150 ×10⁻⁶ cm/s in [25]. In series [29], the half-life was 84 min. In [30], this compound showed a pKa of 3.1. Moreover, the time to peak (Tmax) in series [31] was found to be 30 min.

For orientation: Papp B→A means the apparent permeability from the basolateral to the apical side of a cell layer. For orientation: Papp A→B means the apparent permeability from the apical to the basolateral side of a cell layer. The efflux ratio is a quotient of directional permeabilities that is used to spot active efflux. The bioavailability is the share of a dose that reaches the circulation, judged against a reference dose that is usually intravenous. A lower bioavailability goes with little systemic uptake. In general, pKa refers to the negative logarithm of the acid dissociation constant. Lower therefore signals a group that gives up its proton readily. The Tmax is the time at which the peak concentration occurs.
